Source: patent US11370794B2, “Toll-like receptor antagonist compounds and methods of use” (Dynavax Technologies Corporation, priority 2016, dated 2022)

Target: T1, mouse TLR9 (Mus musculus, UniProt Q9EQU3)
T1 construct: Balb/c mice (Charles River); host or cells: Balb/c mice, in vivo
T1 sequence (Q9EQU3 26-1032): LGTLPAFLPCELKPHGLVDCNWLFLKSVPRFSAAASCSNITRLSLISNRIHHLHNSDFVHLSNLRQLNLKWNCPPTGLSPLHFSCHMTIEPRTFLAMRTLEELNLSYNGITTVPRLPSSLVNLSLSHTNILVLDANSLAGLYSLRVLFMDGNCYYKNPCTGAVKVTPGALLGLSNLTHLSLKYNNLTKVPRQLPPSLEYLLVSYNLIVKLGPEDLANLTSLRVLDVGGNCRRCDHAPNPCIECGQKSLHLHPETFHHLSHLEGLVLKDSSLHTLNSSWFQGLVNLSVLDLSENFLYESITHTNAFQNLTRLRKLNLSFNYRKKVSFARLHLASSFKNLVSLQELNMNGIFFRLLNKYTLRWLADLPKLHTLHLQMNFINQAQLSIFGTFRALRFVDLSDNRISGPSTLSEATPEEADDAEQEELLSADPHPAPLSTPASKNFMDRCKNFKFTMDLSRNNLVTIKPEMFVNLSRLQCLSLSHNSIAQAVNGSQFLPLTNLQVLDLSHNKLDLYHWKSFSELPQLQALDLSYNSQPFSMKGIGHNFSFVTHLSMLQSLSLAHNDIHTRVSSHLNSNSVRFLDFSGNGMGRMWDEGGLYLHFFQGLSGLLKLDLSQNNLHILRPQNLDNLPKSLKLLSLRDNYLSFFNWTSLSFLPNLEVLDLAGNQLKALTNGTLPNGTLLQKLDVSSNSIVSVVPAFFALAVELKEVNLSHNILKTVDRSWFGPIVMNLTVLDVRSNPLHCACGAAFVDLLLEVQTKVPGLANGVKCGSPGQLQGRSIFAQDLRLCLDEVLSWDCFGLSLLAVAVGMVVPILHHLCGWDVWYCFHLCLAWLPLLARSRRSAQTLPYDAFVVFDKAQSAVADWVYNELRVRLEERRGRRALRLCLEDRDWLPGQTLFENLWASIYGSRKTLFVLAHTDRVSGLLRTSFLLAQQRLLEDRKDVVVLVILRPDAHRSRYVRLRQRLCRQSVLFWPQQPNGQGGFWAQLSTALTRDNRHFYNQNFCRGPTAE
Assay: Inhibition of mouse TLR9 in mouse acute challenge model over time (serum IL-12)
Assay type: in vivo
Details: 5 mg/Kg intra-peritoneal, serum IL-12 two, four and twenty-four hours after agonist
Procedure: Example B4-a—Inhibition of Mouse TLR9 in Mouse Acute Challenge Model Over Time
When administered a CpG-containing DNA oligonucleotide, mice respond in an acute manner with release of cytokines into the peripheral blood within 6 hours. The addition of an inhibitor against TLR9 will attenuate the response to the DNA oligonucleotide agonist, which can be measured through a reduction in serum cytokines.
Balb/c mice (Charles River). TLR9 agonist 1018 ISS, CpG-containing DNA oligonucleotide. Mouse interleukin (IL)-12p40 ELISA kit (BD Pharmingen Cat. No. 551219 and 554476).
Mice were injected by the intra-peritoneal dosing route with test compound at 5 mg/kg. Following injection of test compound, mice were injected with a TLR9 agonist (a CpG-containing DNA oligonucleotide) by the intra-peritoneal route to a final dose of approximately 2.5 mg/kg. Two, four and twenty-four hours following administration of the DNA oligonucleotide, blood was collected from mice and processed to serum. The serum was tested for the presence of IL-12 using an ELISA kit. The amount of IL-12 produced is a reflection of the amount of TLR9-dependent receptor activity.

Cc1ccc(-n2nc3c(N4CCC(C(=O)NCCCN(C)C)CC4)nnc(C)c3c2C)cc1 [Compound No. 5, 1-(3,4-dimethyl-2-(p-tolyl)-2H-pyrazolo[3,4-d]pyridazin-7-yl)-N-(3-(dimethylamino)propyl)piperidine-4-carboxamide]
inhibition of TLR9 activity in mice over time (FIG. 2): inhibition of TLR9 activity
